Consider 17 compounds from US12570655B2, “Cysteine covalent modifiers of AKT1 and uses thereof” (Terremoto Biosciences, Inc., priority 2023, dated 2026).

Type in all cases: cell-based
Experiment [1] deals with LAPC4 prostate cancer cells. The experiment in a line: Antiproliferative effects in LAPC4 cells (CellTiter Glo). The note with it: LAPC4 cells (AKT1 E17K allele), read-out: LAPC4 proliferation IC50. In a few lines:
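Cells grown in IMDM supplemented with 12% FBS plus 1% P/S were treated for 72 h with DMSO-dissolved compounds. ATP-based luminescence was fitted to a log(inhibitor) versus response Hill model, giving IC50.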
Background: Cellular ATP, detected with luciferase, serves as a proxy for viable cell number.

The next experiment concerns the target T1, AKT1 WT (Homo sapiens, UniProt P31749).
T1 construct: expressed in transfected cells; host or cells: HEK293
As to the kind of experiment: Live cell AKT1 WT target engagement by NanoBRET competitive probe displacement. Conditions: HEK293 cells transfected with kinase-NanoLuciferase fusion, 2 h at 37° C. In a few lines:
(§1)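 Live-cell competitive tracer displacement in HEK293 expressing NanoLuciferase-tagged kinase. Compound and ATP-competitive tracer (~EC50) are co-incubated 2 h at 37 °C; BRET (E600/E460) gives IC50.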
In general terms: In BRET a luciferase serves as donor, and the signal depends on an acceptor being close.

The next experiment concerns the target T2, AKT2 (Homo sapiens, UniProt P31751).
T2 construct: expressed in transfected cells; host or cells: HEK293
The experiment in a line: Live cell AKT2 target engagement by NanoBRET competitive probe displacement. Conditions: HEK293 cells transfected with kinase-NanoLuciferase fusion, 2 h at 37° C. In a few lines:
as §1

In a further experiment the target is T3, AKT1 E17K (Homo sapiens, UniProt P31749, E17K).
T3 construct: expressed in transfected cells; host or cells: HEK293
As to the kind of experiment: Live cell AKT1 E17K target engagement by NanoBRET competitive probe displacement. Conditions: HEK293 cells transfected with kinase-NanoLuciferase fusion, 2 h at 37° C. The procedure, abridged:
as §1

Each structure is given as a SMILES string. pIC50: −log10 of the molar value. Like-named read-outs stand apart in the source and are kept apart here.

T2 sequence (P31751 whole entry): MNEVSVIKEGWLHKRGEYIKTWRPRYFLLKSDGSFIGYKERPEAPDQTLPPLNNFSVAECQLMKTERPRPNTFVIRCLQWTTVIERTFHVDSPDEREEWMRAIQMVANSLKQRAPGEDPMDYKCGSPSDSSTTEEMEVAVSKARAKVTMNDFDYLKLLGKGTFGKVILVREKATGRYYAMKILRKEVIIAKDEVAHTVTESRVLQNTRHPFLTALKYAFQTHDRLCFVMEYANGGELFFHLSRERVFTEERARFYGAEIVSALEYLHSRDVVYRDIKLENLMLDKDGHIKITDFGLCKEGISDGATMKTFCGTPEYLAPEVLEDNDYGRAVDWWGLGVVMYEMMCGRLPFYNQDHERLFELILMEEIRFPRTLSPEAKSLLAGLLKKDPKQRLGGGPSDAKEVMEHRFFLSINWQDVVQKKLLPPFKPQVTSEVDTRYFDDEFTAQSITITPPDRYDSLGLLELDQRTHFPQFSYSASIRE
T3 sequence (P31749 whole entry E17K): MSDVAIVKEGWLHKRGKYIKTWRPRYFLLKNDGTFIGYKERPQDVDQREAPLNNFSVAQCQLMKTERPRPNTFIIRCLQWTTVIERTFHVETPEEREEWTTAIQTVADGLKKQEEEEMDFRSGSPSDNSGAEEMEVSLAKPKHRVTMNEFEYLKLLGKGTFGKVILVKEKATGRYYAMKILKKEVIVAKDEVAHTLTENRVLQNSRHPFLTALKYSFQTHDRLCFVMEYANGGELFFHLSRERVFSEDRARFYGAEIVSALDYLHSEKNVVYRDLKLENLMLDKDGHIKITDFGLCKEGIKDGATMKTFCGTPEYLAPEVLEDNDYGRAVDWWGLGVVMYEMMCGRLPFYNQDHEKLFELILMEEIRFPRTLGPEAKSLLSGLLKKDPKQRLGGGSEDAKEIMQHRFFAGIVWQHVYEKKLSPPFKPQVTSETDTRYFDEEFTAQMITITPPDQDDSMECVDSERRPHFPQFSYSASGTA
T1 sequence (P31749 whole entry): as the sequence (P31749 whole entry E17K) above, with K17E counted along it

On to `C=CC(=O)N1CCC(N[C@H]2CCc3cc(-n4c(-c5cccnc5N)nc5ccc(-n6cccn6)nc54)ccc32)C[C@@H]1COC` (single isomer, unassigned) [Example 164, 1-((2R,4*)-4-(((S)-5-(2-(2-aminopyridin-3-yl)-5-(1H-pyrazol-1-yl)-3H-imidazo[4,5-b]pyridin-3-yl)-2,3-dihydro-1H-inden-1-yl)amino)-2-(methoxymethyl)piperidin-1-yl)prop-2-en-1-one], for which the pIC50 in experiment [1] (72 h) was 6.31; on AKT1 WT, 7.24; on AKT2 it was 5.39; on AKT1 E17K, 6.32.

For `CC#CC(=O)Nc1ccccc1C(=O)N[C@H]1CCc2cc(-n3c(-c4cccnc4N)nc4ccc(-n5cccn5)nc43)ccc21` [Example 9, N-[(1S)-5-[2-(2-aminopyridin-3-yl)-5-(pyrazol-1-yl)imidazo[4,5-b]pyridin-3-yl]-2,3-dihydro-1H-inden-1-yl]-2-(but-2-ynamido)benzamide], the pIC50 is 6.28 in experiment [1] (Homo sapiens, LAPC4, 72 h); 7.66 on AKT1 WT; 6.36 at AKT2; 7.01 at AKT1 E17K.

Take `Nc1ncccc1-c1nc2ccc(-n3cccn3)nc2n1-c1ccc2c(c1)CC[C@@H]2NC(=O)c1ccccc1NC(=O)C1=CCCC1` [Example 37, (S)-N-(5-(2-(2-aminopyridin-3-yl)-5-(1H-pyrazol-1-yl)-3H-imidazo[4,5-b]pyridin-3-yl)-2,3-dihydro-1H-inden-1-yl)-2-(cyclopent-1-ene-1-carboxamido)benzamide]: the pIC50 in experiment [1] (Homo sapiens, LAPC4, 72 h) was 6.24; at AKT1 WT, 7.03; at AKT2, 6.13; at AKT1 E17K, 6.61.

Turning to `C=CC(=O)N1CCC(N(CC2COC2)[C@H]2CCc3cc(-n4c(-c5cccnc5N)nc5ccc(-n6cccn6)nc54)ccc32)CC1` [Example 161, 1-(4-{[(1S)-5-[2-(2-aminopyridin-3-yl)-5-(pyrazol-1-yl)imidazo[4,5-b]pyridin-3-yl]-2,3-dihydro-1H-inden-1-yl](oxetan-3-ylmethyl)amino}piperidin-1-yl)prop-2-en-1-one], the pIC50 in experiment [1] (Homo sapiens, LAPC4, 72 h) was 7.00; on AKT1 WT, 7.74; at AKT2 it was 6.70; at AKT1 E17K it was 6.96.

As to `C=CC(=O)Nc1ccccc1CN[C@H]1CCc2cc(-n3c(-c4cccnc4N)nc4ccc(-n5cccn5)nc43)ccc21` [Example 39, N-[2-({[(1S)-5-[2-(2-aminopyridin-3-yl)-5-(pyrazol-1-yl)imidazo[4,5-b]pyridin-3-yl]-2,3-dihydro-1H-inden-1-yl]amino}methyl)phenyl]prop-2-enamide], the pIC50 in experiment [1] (Homo sapiens, LAPC4, 72 h) is 5.80; on AKT1 WT, 7.19; at AKT2, 7.02; on AKT1 E17K, 7.02.

With `C=CC(=O)N1CC2(CCC(N[C@H]3CCc4cc(-n5c(-c6cccnc6N)nc6ccc(-n7cccn7)nc65)ccc43)C2)C1` (single isomer, unassigned) [Example 92, 1-((*)-6-(((S)-5-(2-(2-aminopyridin-3-yl)-5-(1H-pyrazol-1-yl)-3H-imidazo[4,5-b]pyridin-3-yl)-2,3-dihydro-1H-inden-1-yl)amino)-2-azaspiro[3.4]octan-2-yl)prop-2-en-1-one], the pIC50 in experiment [1] (72 h) is 7.51; at AKT1 WT, 8.16; at AKT2, 7.23; at AKT1 E17K it was 7.72.

On to `N#CN1CCC(N[C@H]2CCc3cc(-n4c(-c5cccnc5N)nc5ccc(-n6cccn6)nc54)ccc32)CC1` [Example 51, 4-{[(1S)-5-[2-(2-aminopyridin-3-yl)-5-(pyrazol-1-yl)imidazo[4,5-b]pyridin-3-yl]-2,3-dihydro-1H-inden-1-yl]amino}piperidine-1-carbonitrile], for which the pIC50 was 5.84 in experiment [1] (Homo sapiens, LAPC4, 72 h); 6.94 at AKT1 WT; 5.25 at AKT2; 6.14 on AKT1 E17K.

Consider `C=CC(=O)N1CCC(N[C@H]2CCc3cc(-n4c(-c5cccnc5N)nc5ccc(C6CCC6)nc54)ccc32)CC1` [Example 195, 1-(4-{[(1S)-5-[2-(2-aminopyridin-3-yl)-5-cyclobutylimidazo[4,5-b]pyridin-3-yl]-2,3-dihydro-1H-inden-1-yl]amino}piperidin-1-yl)prop-2-en-1-one], for which the pIC50 was 6.50 in experiment [1] (Homo sapiens, LAPC4, 72 h); 6.38 on AKT1 WT; 7.09 on AKT2; 8.13 on AKT1 E17K.

`C=CC(=O)N1CCC(NC2c3ccc(-n4c(-c5cccnc5N)nc5ccc(-n6cccn6)nc54)cc3CC2O)CC1` (single isomer, unassigned) [Example 150, 1-(4-(((1*,2*)-5-(2-(2-aminopyridin-3-yl)-5-(1H-pyrazol-1-yl)-3H-imidazo[4,5-b]pyridin-3-yl)-2-hydroxy-2,3-dihydro-1H-inden-1-yl)amino)piperidin-1-yl)prop-2-en-1-one]: the pIC50 in experiment [1] (72 h) is 6.32; at AKT1 WT it was 7.51; on AKT2 it was 6.11; on AKT1 E17K, 6.67.

As for `C=CC(=O)N1CCC(N[C@@H]2c3ccc(-n4c(-c5cccnc5N)nc5ccc(-n6ccc(F)n6)nc54)cc3CC2F)C[C@H]1C` (single isomer, unassigned) [Example 277, 1-((2R,4*)-4-(((1R,2*)-5-(2-(2-aminopyridin-3-yl)-5-(3-fluoro-1H-pyrazol-1-yl)-3H-imidazo[4,5-b]pyridin-3-yl)-2-fluoro-2,3-dihydro-1H-inden-1-yl)amino)-2-methylpiperidin-1-yl)prop-2-en-1-one], the pIC50 in experiment [1] (72 h) is 6.86; at AKT1 WT, 6.09; at AKT2, 7.26; at AKT1 E17K, 7.63.

Regarding `C=CC(=O)N1CCC(N[C@H]2CCc3cc(-n4c(-c5cccnc5N)nc5ccc(C(F)(F)F)nc54)ccc32)CC1` [Example 348], the pIC50 was 6.06 in experiment [1] (Homo sapiens, LAPC4, 72 h); 5.57 on AKT1 WT; 6.44 at AKT2; 7.49 on AKT1 E17K.

Consider `C=CC(=O)N1C[C@H]2C[C@@H]1CC2N[C@H]1CCc2cc(-n3c(-c4cccnc4N)nc4ccc(-n5cccn5)nc43)ccc21` (single isomer, unassigned) [Example 137, 1-[(1R,4R,5*)-5-{[(1S)-5-[2-(2-aminopyridin-3-yl)-5-(pyrazol-1-yl)imidazo[4,5-b]pyridin-3-yl]-2,3-dihydro-1H-inden-1-yl]amino}-2-azabicyclo[2.2.1]heptan-2-yl]prop-2-en-1-one], for which the pIC50 in experiment [1] (72 h) was 6.79; at AKT1 WT it was 7.85; on AKT2 it was 6.61; at AKT1 E17K, 7.15.

Regarding `C=CC(=O)N1CCC(N[C@H]2CCc3cc(-n4c(-c5cccnc5N)nc5ccc(-n6cccn6)nc54)ccc32)C[C@@H]1COC` (single isomer, unassigned) [Example 165, 1-((2R,4*)-4-(((S)-5-(2-(2-aminopyridin-3-yl)-5-(1H-pyrazol-1-yl)-3H-imidazo[4,5-b]pyridin-3-yl)-2,3-dihydro-1H-inden-1-yl)amino)-2-(methoxymethyl)piperidin-1-yl)prop-2-en-1-one], the pIC50 in experiment [1] (72 h) is 6.73; at AKT1 WT, 7.41; at AKT2, 6.79; on AKT1 E17K, 6.84.

Turning to `C=CC(=O)N1CCC(N[C@H]2CCc3cc(-n4c(-c5cccnc5N)nc5ccc(-n6cccn6)nc54)ccc32)C(F)C1` (single isomer, unassigned) [Example 104, 1-((3*,4*)-4-(((S)-5-(2-(2-aminopyridin-3-yl)-5-(1H-pyrazol-1-yl)-3H-imidazo[4,5-b]pyridin-3-yl)-2,3-dihydro-1H-inden-1-yl)amino)-3-fluoropiperidin-1-yl)prop-2-en-1-one], the pIC50 in experiment [1] (72 h) is 6.92; on AKT1 WT it was 8.34; on AKT2 it was 7.03; at AKT1 E17K it was 7.69.

Regarding `C=CC(=O)NC1CC(N[C@H]2CCc3cc(-n4c(-c5cccnc5N)nc5ccc(-n6cccn6)nc54)ccc32)C1` (single isomer, unassigned) [Example 89, N-((1*,3*)-3-(((S)-5-(2-(2-aminopyridin-3-yl)-5-(1H-pyrazol-1-yl)-3H-imidazo[4,5-b]pyridin-3-yl)-2,3-dihydro-1H-inden-1-yl)amino)cyclobutyl)acrylamide], the pIC50 in experiment [1] (72 h) was 7.13; at AKT1 WT, 8.09; on AKT2, 7.12; on AKT1 E17K, 7.64.

For `C=CC(=O)N1CCC2(CC1)CC(N[C@H]1CCc3cc(-n4c(-c5cccnc5N)nc5ccc(-n6cccn6)nc54)ccc31)C2` [Example 30, 1-(2-{[(1S)-5-[2-(2-aminopyridin-3-yl)-5-(pyrazol-1-yl)imidazo[4,5-b]pyridin-3-yl]-2,3-dihydro-1H-inden-1-yl]amino}-7-azaspiro[3.5]nonan-7-yl)prop-2-en-1-one], the pIC50 in experiment [1] (Homo sapiens, LAPC4, 72 h) was 5.59; at AKT1 WT it was 6.53; at AKT2, 5.32; on AKT1 E17K it was less than 6.00.

Regarding `C=CC(=O)N1CCC(N[C@H]2CCc3cc(-n4c(-c5cccnc5N)nc5ccc(-n6cccn6)nc54)ccc32)C[C@H]1C` (single isomer, unassigned) [Example 62, 1-((2R,4*)-4-(((S)-5-(2-(2-aminopyridin-3-yl)-5-(1H-pyrazol-1-yl)-3H-imidazo[4,5-b]pyridin-3-yl)-2,3-dihydro-1H-inden-1-yl)amino)-2-methylpiperidin-1-yl)prop-2-en-1-one], the pIC50 in experiment [1] (72 h) was 7.77; at AKT1 WT it was 8.03; at AKT2 it was 7.50; on AKT1 E17K, 8.08.
